pIC50: −log10 of the molar value. Several values for one entry are separate records, joined by “and”; a condition that tells them apart may be missing. Identical values can stand only once.
Key:
[1] = target: Norepinephrine transporter (Rattus norvegicus, UniProt Q9WTR4); assay: In vitro inhibition of NE uptake at NE uptake site; format: functional
[2] = test system: Rattus norvegicus; assay: Compound (po) was tested in vivo for inhibition of MAO activity remaining inside (N) 5-HT synaptosomes of rat hypothalamus.; format: functional
[3] = target: T1, Monoamine oxidase (Rattus norvegicus, UniProt P19643+P21396); assay: Compound was tested in vitro for inhibition of MAO by using [14C]phenylethylamine as substrate in rat brain mitochondrial preparation; format: tissue-based
T1 sequence (P19643 whole entry): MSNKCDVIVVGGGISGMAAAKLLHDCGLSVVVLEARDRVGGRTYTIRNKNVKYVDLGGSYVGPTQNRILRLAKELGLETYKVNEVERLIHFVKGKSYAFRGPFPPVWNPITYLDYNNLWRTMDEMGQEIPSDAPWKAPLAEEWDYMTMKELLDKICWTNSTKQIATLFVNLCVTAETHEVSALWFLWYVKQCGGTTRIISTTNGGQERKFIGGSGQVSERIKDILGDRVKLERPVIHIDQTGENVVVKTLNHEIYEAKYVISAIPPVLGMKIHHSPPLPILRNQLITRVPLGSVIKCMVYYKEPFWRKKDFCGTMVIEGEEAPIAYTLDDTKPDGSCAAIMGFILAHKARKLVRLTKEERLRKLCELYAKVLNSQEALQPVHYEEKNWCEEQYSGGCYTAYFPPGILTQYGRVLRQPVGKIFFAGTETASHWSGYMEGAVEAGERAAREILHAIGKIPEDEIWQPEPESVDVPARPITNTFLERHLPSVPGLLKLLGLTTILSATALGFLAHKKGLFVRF
T1 sequence (P21396 whole entry): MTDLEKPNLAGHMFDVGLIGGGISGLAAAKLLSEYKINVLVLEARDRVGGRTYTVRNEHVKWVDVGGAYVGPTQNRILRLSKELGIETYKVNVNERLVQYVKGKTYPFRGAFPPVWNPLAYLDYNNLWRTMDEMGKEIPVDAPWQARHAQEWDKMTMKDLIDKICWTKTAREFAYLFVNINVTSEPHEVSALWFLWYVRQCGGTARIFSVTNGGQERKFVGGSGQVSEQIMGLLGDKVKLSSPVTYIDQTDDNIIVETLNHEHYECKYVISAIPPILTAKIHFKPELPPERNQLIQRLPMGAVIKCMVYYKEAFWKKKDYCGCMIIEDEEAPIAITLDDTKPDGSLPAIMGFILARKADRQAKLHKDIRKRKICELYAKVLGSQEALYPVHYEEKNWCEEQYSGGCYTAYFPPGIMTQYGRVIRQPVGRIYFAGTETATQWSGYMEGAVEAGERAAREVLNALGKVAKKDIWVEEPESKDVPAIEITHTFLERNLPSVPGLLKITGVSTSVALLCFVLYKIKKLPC

[4] = test system: Rattus norvegicus; assay: Compound (po) was tested in vivo for inhibition of MAO activity remaining inside (N) DA synaptosomes of rat striatum; format: functional
[5] = Ratio of the inhibition of MAO using [14C]-PEA and [14C]5-HT in rat brain; format: tissue-based
[6] = Ratio of inhibition of MAO activity remaining outside (EN) and inside (N) synaptosomes; format: subcellular; conditions: Brain
[7] = target: T1, Monoamine oxidase; assay: Compound was tested in vitro for inhibition of MAO by using [14C]5-HT as substrate in rat brain mitochondrial preparation; format: tissue-based
[8] = species on record: Rattus norvegicus; assay: The lowest dose that release 5-HT causing a serotonin syndrome in rat; format: functional
[9] = test system: Rattus norvegicus; assay: (§1) Compound (po) was tested in vivo for inhibition of MAO activity remaining outside (EN) DA synaptosomes of rat striatum; format: functional
[10] = species on record: Rattus norvegicus; assay: The lowest dose that release NE causing reversal of ptosis in rat; format: functional
[11] = target: Sodium-dependent dopamine transporter (Rattus norvegicus, UniProt P23977); assay: In […] inhibition of DA uptake at dopamine uptake site; format: functional
Sequence of Sodium-dependent dopamine transporter (P23977 whole entry): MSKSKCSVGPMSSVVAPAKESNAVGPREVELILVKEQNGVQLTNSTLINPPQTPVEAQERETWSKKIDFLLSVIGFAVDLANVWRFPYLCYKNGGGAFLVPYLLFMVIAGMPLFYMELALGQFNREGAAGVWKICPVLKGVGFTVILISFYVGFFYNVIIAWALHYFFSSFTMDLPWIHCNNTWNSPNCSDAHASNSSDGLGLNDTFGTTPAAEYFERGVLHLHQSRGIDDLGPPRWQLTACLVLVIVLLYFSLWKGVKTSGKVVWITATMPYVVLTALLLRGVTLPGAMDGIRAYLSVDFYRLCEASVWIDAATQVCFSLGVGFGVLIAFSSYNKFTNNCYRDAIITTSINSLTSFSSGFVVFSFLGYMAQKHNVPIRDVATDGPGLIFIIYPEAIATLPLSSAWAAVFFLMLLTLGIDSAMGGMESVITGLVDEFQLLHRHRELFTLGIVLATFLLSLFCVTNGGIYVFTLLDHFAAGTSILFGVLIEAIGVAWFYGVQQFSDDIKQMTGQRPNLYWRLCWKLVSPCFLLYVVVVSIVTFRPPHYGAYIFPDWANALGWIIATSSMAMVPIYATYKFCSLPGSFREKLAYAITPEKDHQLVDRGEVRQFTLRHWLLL

[12] = target: Sodium-dependent serotonin transporter (Rattus norvegicus, UniProt P31652); assay: Compound was tested in vitro for inhibition of Serotonin transporter uptake at serotonin uptake site
Sequence of Sodium-dependent serotonin transporter (P31652 whole entry): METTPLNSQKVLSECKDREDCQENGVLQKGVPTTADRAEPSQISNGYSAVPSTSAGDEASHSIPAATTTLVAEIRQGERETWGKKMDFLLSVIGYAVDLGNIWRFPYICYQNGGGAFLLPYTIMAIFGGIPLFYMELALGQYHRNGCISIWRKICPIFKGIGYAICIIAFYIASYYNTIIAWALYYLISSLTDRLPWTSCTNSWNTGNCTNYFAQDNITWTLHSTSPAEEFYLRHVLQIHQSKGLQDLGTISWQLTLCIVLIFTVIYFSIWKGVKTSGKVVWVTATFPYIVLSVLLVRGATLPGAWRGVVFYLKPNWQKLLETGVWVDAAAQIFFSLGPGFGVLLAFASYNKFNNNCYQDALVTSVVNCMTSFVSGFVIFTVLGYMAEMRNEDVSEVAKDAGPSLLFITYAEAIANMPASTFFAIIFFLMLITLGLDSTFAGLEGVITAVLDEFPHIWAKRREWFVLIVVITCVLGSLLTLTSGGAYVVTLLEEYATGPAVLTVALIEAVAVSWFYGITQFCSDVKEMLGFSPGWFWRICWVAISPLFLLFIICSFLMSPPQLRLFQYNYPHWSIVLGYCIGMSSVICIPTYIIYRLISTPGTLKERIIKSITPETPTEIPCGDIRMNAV

[13] = test system: Rattus norvegicus; assay: Compound (po) was tested in vivo for inhibition of MAO activity remaining inside (N) NE synaptosomes of rat hypothalamus; format: functional
[14] = species on record: Rattus norvegicus; assay: The lowest dose that release DA causing increased motor activity in rat; format: functional
[15] = test system: Rattus norvegicus; assay: Compound (po) was tested in vivo for inhibition of Monoamino oxidase activity remaining inside (N) 5-HT synaptosomes of rat hypothalamus.; format: functional
[16] = target: T1, Monoamine oxidase; assay: Compound was tested in vitro for inhibition of Monoamino oxidase by using [14C]phenylethylamine as substrate in rat brain mitochondrial preparation; format: tissue-based
[17] = target: T1, Monoamine oxidase; assay: Compound was tested in vitro for inhibition of Monoamino oxidase by using [14C]5-HT as substrate in rat brain mitochondrial preparation; format: tissue-based
[18] = test system: Rattus norvegicus; assay: Compound (po) was tested in vivo for inhibition of MAO activity remaining outside (EN) 5-HT synaptosomes of rat hypothalamus.; format: functional
[19] = as §1; format: functional

Sequence of Norepinephrine transporter (Q9WTR4 whole entry): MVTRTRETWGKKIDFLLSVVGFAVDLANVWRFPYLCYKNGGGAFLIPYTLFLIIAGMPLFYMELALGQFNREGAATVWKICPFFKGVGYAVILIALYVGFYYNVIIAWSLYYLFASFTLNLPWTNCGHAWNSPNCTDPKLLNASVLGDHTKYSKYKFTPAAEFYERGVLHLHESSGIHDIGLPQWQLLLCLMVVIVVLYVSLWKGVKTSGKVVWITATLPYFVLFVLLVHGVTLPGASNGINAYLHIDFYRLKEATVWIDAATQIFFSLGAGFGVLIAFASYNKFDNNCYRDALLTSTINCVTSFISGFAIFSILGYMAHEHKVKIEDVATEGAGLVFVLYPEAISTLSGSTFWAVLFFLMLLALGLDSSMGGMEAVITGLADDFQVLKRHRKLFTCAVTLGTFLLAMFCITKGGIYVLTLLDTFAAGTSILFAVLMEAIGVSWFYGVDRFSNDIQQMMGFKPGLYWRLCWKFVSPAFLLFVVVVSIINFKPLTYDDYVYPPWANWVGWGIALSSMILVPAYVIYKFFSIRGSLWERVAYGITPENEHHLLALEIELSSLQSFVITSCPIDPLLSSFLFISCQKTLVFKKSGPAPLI

| Compound | pIC50 [1] | ED50 [2] | IC50 [3] | ED50 [4] | Ratio [5] | Ratio [6] | IC50 [7] | ED50 [8] | ED50 [9] | ED50 [10] | pIC50 [11] | pIC50 [12] | ED50 [13] | ED50 [14] | ED50 [15] | IC50 [16] | IC50 [17] | ED50 [18] | ED50 [19] |
| --- | --- | --- | --- | --- | --- | --- | --- | --- | --- | --- | --- | --- | --- | --- | --- | --- | --- | --- | --- |
| CC(N)Cc1ccc2c(c1)CCN2 (configuration not stated) | 6.44 | 1.8 µmol/kg | > 100 µM | 0.8 µmol/kg | > 20 | > 15 and > 31 and 25 | 5 µM | 42 µmol/kg | 20 µmol/kg | 17 µmol/kg | 5.42 | 5.74 | 1.1 µmol/kg | 42 µmol/kg | – | – | – | – | – |
| CCC(N)Cc1ccc2c(c1)CCN2 (configuration not stated) | 6.30 | – | – | 26 µmol/kg | 57 | – | – | 64 µmol/kg | 74 µmol/kg | 128 µmol/kg | 5.00 | 5.44 | 32 µmol/kg | > 256 µmol/kg | 11 µmol/kg | 800 µM | 14 µM | – | – |
| Cc1c(CC(C)N)ccc2c1CCN2 (configuration not stated) | 6.12 | 0.8 µmol/kg | > 500 µM | 4.6 µmol/kg | > 625 | – | 0.8 µM | 64 µmol/kg | 13 µmol/kg | 128 µmol/kg | 5.05 | 6.42 | 1.1 µmol/kg | > 128 µmol/kg | – | – | – | – | – |
| Cc1cc2c(cc1CC(C)N)CCN2 (configuration not stated) | 5.22 | > 61 µmol/kg | 170 µM | > 61 µmol/kg | 13 | > 1 | 13 µM | > 61 µmol/kg | > 61 µmol/kg | > 61 µmol/kg | 5.22 | < 4.80 | 49 µmol/kg | > 61 µmol/kg | – | – | – | – | – |
| CC(N)Cc1ccc2c(c1Cl)CCN2 (configuration not stated) | 6.49 | 1.5 µmol/kg | 800 µM | 2.2 µmol/kg | 4000 | – | 0.2 µM | 59 µmol/kg | 4.1 µmol/kg | 59 µmol/kg | < 5.00 | 6.47 | 1.6 µmol/kg | > 59 µmol/kg | – | – | – | – | – |
| CCN1CCc2c1ccc(CC(C)N)c2C (configuration not stated) | 5.12 | 13 µmol/kg | > 500 µM | 10 µmol/kg | > 455 | – | 1.1 µM | 87 µmol/kg | 16 µmol/kg | > 87 µmol/kg | < 5.00 | 5.82 | 9 µmol/kg | > 87 µmol/kg | – | – | – | – | – |
| CCN1CCc2cc(CC(C)N)c(C)cc21 (configuration not stated) | 5.60 | > 27 µmol/kg | 77 µM | 12 µmol/kg | 233 | > 3 and 1.4 | 0.33 µM | > 87 µmol/kg | – | 87 µmol/kg | < 5.00 | 5.66 | 17 µmol/kg | > 87 µmol/kg | – | – | – | > 27 µmol/kg | 17 µmol/kg |
| Cc1cc(N(C)C)ccc1CC(C)N (configuration not stated) | 6.19 | 1.1 µmol/kg | > 1000 µM | 3.3 µmol/kg | > 1250 | – | 0.8 µM | 7.5 µmol/kg | 4.4 µmol/kg | 15 µmol/kg | < 5.00 | 7.00 | 2 µmol/kg | > 300 µmol/kg | – | – | – | – | – |
| CCC(N)Cc1ccc2c(c1Cl)CCN2 (configuration not stated) | 5.80 | 9.1 µmol/kg | – | 12 µmol/kg | – | 2 (2×) and 2.3 | – | 28 µmol/kg | 28 µmol/kg | > 112 µmol/kg | < 5.00 | 6.52 | 11 µmol/kg | > 112 µmol/kg | – | – | – | – | – |
| CC(C)(N)Cc1ccc2c(c1)CCN2 | 5.57 | 4.4 µmol/kg | 2600 µM | 8 µmol/kg | 929 | – | 2.8 µM | 128 µmol/kg | 36 µmol/kg | 64 µmol/kg | < 5.00 | 5.72 | 12 µmol/kg | > 256 µmol/kg | – | – | – | – | – |

— ChEMBL document CHEMBL1123336, “Selective monoamine oxidase inhibitors. 3. Cyclic compounds related to 4-aminophenethylamine. Preparation and neuron-selective action of some 5-(2-aminoethyl)-2,3-dihydroindoles” (J Med Chem, 1986)
